From patent publication US20120251528A1, “Non-Human Mammal Model Of Human Hematopoietic Cancer” (priority 2009, published 2012)
“Also recorded” adds a separate entry of the source.

Experiments:
GFP+ leukemic cells = experiment: Combinatorial treatment of Alemtuzumab and cyclophosphamide in secondary GFP/myc/bcl mice: GFP+ cells per organ; type: in vivo, mouse; conditions: 9 days after beginning of treatment; for effect on the leukemia in the bone marrow: single treatment
Protocol: Absolute number of GFP+leukemic cells per organ was assessed by FACS and absolute count calculation.
Cohorts of secondary recipients were generated and divided into treatment groups as described above.

GFP/myc/bcl cells [1] = experiment: Cumulative survival of secondary GFP/myc/bcl mice, Alemtuzumab vs control; type: in vivo, mouse; conditions: Log-rank test; FIG. 4C
Protocol: (§3) Each mouse in a cohort of secondary mice was injected with ˜10^6 GFP+ cells from the same primary donor mouse. 18-20 days later, mice were divided into 2 groups, and stratified for the density of GFP+ cells found in their peripheral blood (i.e. having the same (or similar) number of GFP+ cells/uL of blood).
(§4) Two days after completing the course of treatment, several mice were euthanized and the number of GFP+ cells in various organs was determined.

GFP/myc/bcl cells [2] = experiment: Complement-dependent cytotoxicity (CDC) in vitro, Annexin-V-PE/7-AAD flow cytometry; type: cell-based, human; conditions: 1-100 μg/ml, 48 h
Protocol: Media were supplemented with human, murine BL6- as NSG-derived serum. Serum-free media and heat-inactivated serum served as control. Cell viability was assessed by Annexin-V-PE/7-AAD flow cytometry after 48 h.
(§1) Antibody-bound leukemic cells can also be killed by complement-mediated lysis.

ALL-cells = experiment: Direct cytotoxic effects on ALL-cells in vitro; type: cell-based, human
Description: as §1

GMB cells = experiment: Antibody-dependent cellular cytotoxicity with thioglycollate induced macrophages from NSG mice in vitro; type: cell-based, human; conditions: for macrophage-mediated killing / lysis of leukemia cells: induced peritoneal NSG macrophages
Description: as §1

leukemic cells = experiment: Alemtuzumab treatment of macrophage-depleted (clodronate liposomes) tumor-bearing mice; type: in vivo, mouse; conditions: treated 2 days after injection of clodronate liposomes
GFP/myc/bcl cells [3] = conditions: 5 mg/kg i.v. days 1, 4, 7, two days after completing treatment
Protocol: Mice were treated 14 days after transplantation while showing leukemic phenotype. […] Response to treatment was assessed after 7 days, a leukemic burden was measured by flow cytometry and calculating absolute cell count per organ.
as §3, §4

[4] = Alemtuzumab distribution in vivo, IVIS fluorometry; set-up: species or system mouse; conditions: 24 h; for tissue distribution of fluorescent signal (spleen, liver, bones): 5 mg/kg i.v.
Protocol: High signal in dissected whole brain.
(§2) Mice were sacrificed after 24 h and imaged at an IVIS fluorometer. […] Organs were homogenized and cells from these organs were directly assessed for Alemtuzumab-AlexaFluor750 binding by flow cytometry.

GFP+ leukemia cells = experiment: In vivo binding of GFP/myc/bcl cells by labeled Alemtuzumab, flow cytometry of homogenized organs; set-up: species or system mouse; conditions: 5 mg/kg, 24 h
Protocol: Organs were homogenized and antibody binding to cells detected by flow cytometry.
as §2

GFP/myc/bcl cells [5] = experiment: F(ab)2 fragments of Alemtuzumab injected to secondary GFP/myc/bcl mice (Fc-dependent effects); type: in vivo, mouse; conditions: injected day 14 after transplantation, vs Alemtuzumab control
Description: as §1

[6] = listed as Alemtuzumab-AlexaFluor750

## O=P1(N(CCCl)CCCl)NCCCO1 (stereo not drawn) [cyclophosphamide]
GFP+ leukemic cells; 150 mg/kg i.p. days 1 and 2
  reduction of GFP+ cells found in the brain: ~300 fold
GFP+ leukemic cells; single agent
  reduction of GFP+ cells in the peripheral blood: as effectively as the treatment using Alemtuzumab alone
GFP+ leukemic cells
  effect on the leukemia in the bone marrow: neither single treatment had much effect

## Alemtuzumab
GFP/myc/bcl cells [1]
  survival vs PBS-treated control: survived significantly longer; also recorded: significant prolonged survival
GFP/myc/bcl cells [2]; media with human serum
  complement-dependent cytotoxicity, human serum: detected in human serum
GFP/myc/bcl cells [2]; media with murine BL6- or NSG-derived serum
  complement-dependent cytotoxicity, murine sera: did not mediate Alemtuzumab mediated tumor cell killing; also recorded: not in murine sera
ALL-cells
  direct cytotoxic effects on ALL-cells: no direct cytotoxic effects
GMB cells; NSG macrophages in the presence of antibody
  time within which macrophages killed GMB cells: ≤ 13 h
GMB cells
  macrophage-mediated killing / lysis of leukemia cells: capable of ALL-cell lysis
Leukemic cells
  reduction of leukemic cells in the spleen of macrophage-depleted mice: no reduction of leukemic cells in the spleen
GFP+ leukemic cells; single agent
  effect on GFP+ cells in the brain: no effect
GFP+ leukemic cells
  effect on the leukemia in the bone marrow: neither single treatment had much effect
GFP/myc/bcl cells [3]; bone marrow
  number of GFP+ cells in bone marrow vs control mice: approximately the same
GFP/myc/bcl cells [3]; brain
  number of GFP+ cells in brain vs control mice: approximately the same
GFP/myc/bcl cells [3]; liver
  decrease of GFP+ cells in liver vs PBS: ~400 fold
GFP/myc/bcl cells [3]; peripheral blood
  decrease of GFP+ cells in peripheral blood vs PBS: ~30 fold
GFP/myc/bcl cells [3]; spleen
  decrease of GFP+ cells in spleen vs PBS: ~3300 fold

## AlexaFluor750 labeled Alemtuzumab: Alemtuzumab labeled with AlexaFluor 750
[4]
  tissue distribution of fluorescent signal (spleen, liver, bones): Intense staining of spleen, liver and bones
[4]; listed as Labeled Alemtuzumab
  tissue distribution of fluorescent signal (spleen, liver, bones): focused on spleen and bones
[4]; i.v.
  fluorescent signal in dissected whole brain: High signal
GFP+ leukemia cells
  antibody binding to GFP+ leukemia cells, bone marrow: increased AlexaFLuor750 signal
  antibody binding to GFP+ leukemia cells, spleen: increased AlexaFLuor750 signal
  antibody binding to brain-derived leukemia cells: no detection could be detected
GFP+ leukemia cells; [6]
  antibody binding to GFP+ leukemia cells, bone marrow: Strong antibody binding
  antibody binding to GFP+ leukemia cells, spleen: Strong antibody binding
  antibody binding to brain-derived leukemia cells: no specific binding

## F(ab)2 fragments of Alemtuzumab: pepsin-digested F(ab)2-fragments of Alemtuzumab lacking the Fc part
GMB cells
  macrophage-mediated killing / lysis of leukemia cells: no effect
GMB cells; listed as F(ab)2 fragments
  macrophage-mediated killing / lysis of leukemia cells: No GFP/myc/bcl-directed killing
GFP/myc/bcl cells [5]
  therapeutic effect in secondary GFP/myc/bcl mice: no therapeutic effects
GFP/myc/bcl cells [5]; listed as F(ab)2-fragments of Alemtuzumab
  therapeutic effect in secondary GFP/myc/bcl mice: no therapeutic effect
